Test system: BaF3 V617F cells; UKE-1
Test: Proliferation Assay (Cell Titer-Glo; Example 7)
Format: cell-based
Conditions: proliferation 72 hours, inhibit JAK2 activity, cell line (BaF3 V617F or UKE-1) not stated
Procedure, shortened: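 Proliferation IC50s reflect 72 h compound exposure at 37 °C, read by Cell Titer-Glo luminescence. Compound was serially diluted 3-fold from a 5 mM DMSO stock and added as a 2× solution; BaF3 V617F cells were grown in RPMI/10% FBS, UKE-1 in Iscove's DMEM with FBS, equine serum and hydrocortisone.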

| IC50 [nM] | Structure (SMILES) |
| --- | --- |
| 431 | CCNS(=O)(=O)NCc1ccc(Nc2nc(Nc3cc(OC)c(OC)c(OC)c3)ncc2Cl)cc1 [II-112, 5-Chloro-N4-[(4-(ethylamino)sulfonylamino)methylphenyl]-N2-(3,4,5-trimethoxyphenyl)-2,4-pyrimidinediamine] |
| 286 | CCNS(=O)(=O)NCc1ccc(Nc2nc(Nc3cc(Cl)c(OC)c(OC)c3)ncc2Cl)cc1 [II-113, 5-Chloro-N2-(3-chloro-4,5-dimethoxyphenyl)-N4-[(4-(ethylamino)sulfonylamino)methylphenyl]-2,4-pyrimidinediamine] |
| 180 | CCNS(=O)(=O)NCc1ccc(Nc2nc(Nc3ccc(N4CCN(C)CC4)cc3)ncc2Cl)cc1 [II-114, 5-Chloro-N4-[(4-(ethylamino)sulfonylamino)methylphenyl]-N2-[4-(4-methyl-1-piperazinyl)phenyl]-2,4-pyrimidinediamine] |
| 409 | CCNS(=O)(=O)NCc1ccc(Nc2nc(Nc3ccc(C4CCN(C)CC4)cc3)ncc2Cl)cc1 [II-115, 5-chloro-N4-[(4-(ethylamino)sulfonylamino)methylphenyl]-N2-[4-(1-methyl-4-piperidinyl)pheny]-2,4-pyrimidinediamine] |
| 73.7 | CCNS(=O)(=O)NCc1ccc(Nc2nc(Nc3cc(C)c(OC)c(C)c3)ncc2C)cc1 [II-116, N2-(3,5-Dimethyl-4-methoxyphenyl)-N4-[(4-(ethylamino)sulfonylamino)methylphenyl]-5-methyl-2,4-pyrimidinediamine] |
| 208 | CCNS(=O)(=O)NCc1ccc(Nc2nc(Nc3cc(C)c(OC)c(OC)c3)ncc2C)cc1 [II-117, N2-(3,4-Dimethoxy-5-methylphenyl)-N4-[(4-(ethylamino)sulfonylamino)methylphenyl]-5-methyl-2,4-pyrimidinediamine] |
| 229 | CCNS(=O)(=O)NCc1ccc(Nc2nc(Nc3cc(C)c(OC)c(Cl)c3)ncc2C)cc1 [II-118, N2-(3-Chloro-4-methoxy-5-methylphenyl)-N4-[(4-(ethylamino)sulfonylamino)methylphenyl]-5-methyl-2,4-pyrimidinediamine] |
| 1360 | CCNS(=O)(=O)NCc1ccc(Nc2nc(Nc3cc(Cl)c(OC)c(Cl)c3)ncc2C)cc1 [II-119, N2-[3,5-Dichloro-4-methoxyphenyl]-N4-[(4-(ethylamino)sulfonylamino)methylphenyl]-5-methyl-2,4-pyrimidinediamine] |
| 871 | CCNS(=O)(=O)NCc1ccc(Nc2nc(Nc3cc(OC)c(OC)c(OC)c3)ncc2C)cc1 [II-120, N4-[(4-(Ethylamino)sulfonylamino)methylphenyl]-5-methyl-N2-(3,4,5-trimethoxyphenyl)-2,4-pyrimidinediamine] |
| 363 | CCNS(=O)(=O)NCc1ccc(Nc2nc(Nc3cc(Cl)c(OC)c(OC)c3)ncc2C)cc1 [II-121, N2-(3-Chloro-4,5-dimethoxyphenyl)-N4-[(4-(ethylamino)sulfonylamino)methylphenyl]-5-methyl-2,4-pyrimidinediamine] |
| 276 | CCNS(=O)(=O)NCc1ccc(Nc2nc(Nc3ccc(N4CCN(C)CC4)cc3)ncc2C)cc1 [II-122, N4-[(4-(Ethylamino)sulfonylamino)methylphenyl]-5-methyl-N2-[4-(4-methyl-1-piperazinyl)phenyl]-2,4-pyrimidinediamine] |
| 373 | CCNS(=O)(=O)NCc1ccc(Nc2nc(Nc3ccc(N4CCC(F)(F)CC4)cc3)ncc2C)cc1 [II-123, N2-[4-(4,4-Difluoro-1-piperidinyl)phenyl]-N4-[(4-(ethylamino)sulfonylamino)methylphenyl]-5-methyl-2,4-pyrimidinediamine] |
| 1160 | CCNS(=O)(=O)NCc1ccc(Nc2nc(Nc3ccc(C4CCN(C)CC4)cc3)ncc2C)cc1 [II-124, N4-[(4-(Ethylamino)sulfonylamino)methylphenyl]-5-methyl-N2-[4-(1-methyl-4-piperidinyl)pheny]-2,4-pyrimidinediamine] |
| 512 | CCNS(=O)(=O)NCc1ccc(Nc2nc(Nc3ccc(N4CCN(CC)CC4)cc3)ncc2C)cc1 [II-125, N4-[(4-(ethylamino)sulfonylamino)methylphenyl]-N2-[4-(4-ethyl-1-piperazinyl)phenyl]-5-methyl-2,4-pyrimidinediamine] |
| 1510 | COc1c(C)cc(Nc2ncc(C(F)(F)F)c(Nc3ccc(CNS(=O)(=O)C4CC4)cc3)n2)cc1C [II-126, N4-[4-(N-Cyclopropylsulfonylamino)methylphenyl]-N2-(3,5-dimethyl-4-methoxyphenyl)-5-trifluoromethyl-2,4-pyrimidinediamine] |
| 338 | CN1CCN(c2ccc(Nc3ncc(C(F)(F)F)c(Nc4ccc(CNS(=O)(=O)C5CC5)cc4)n3)cc2)CC1 [II-127, N4-[4-(N-Cyclopropylsulfonylamino)methylphenyl]-N2-[4-(4-methyl-1-piperazinyl)phenyl]-5-trifluoromethyl-2,4-pyrimidinediamine] |
| 755 | Cc1cc(Nc2ncc(C(F)(F)F)c(Nc3ccc(CNS(=O)(=O)C4CC4)cc3)n2)ccc1N1CCN(C)CC1 [II-128, N4-[4-(N-Cyclopropylsulfonylamino)methylphenyl]-N2-[3-methyl-4-(4-methyl-1-piperazinyl)phenyl]-5-trifluoromethyl-2,4-pyrimidinediamine] |

| IC50 [nM] | Structure (SMILES) |
| --- | --- |
| 127 | CCNS(=O)(=O)NCc1cccc(Nc2nc(Nc3cc(C)c(OC)c(C)c3)ncc2Cl)c1 [II-129, 5-Chloro-N2-(3,5-dimethyl-4-methoxyphenyl)-N4-[(3-(ethylamino)sulfonylamino)methylphenyl]-2,4-pyrimidinediamine] |
| 140 | CCNS(=O)(=O)NCc1cccc(Nc2nc(Nc3cc(C)c(OCC)c(C)c3)ncc2Cl)c1 [II-130, 5-Chloro-N2-(3,5-dimethyl-4-ethoxyphenyl)-N4-[(3-(ethylamino)sulfonylamino)methylphenyl]-2,4-pyrimidinediamine] |
| 151 | CCNS(=O)(=O)NCc1cccc(Nc2nc(Nc3ccc(N4CCN(C)CC4)cc3)ncc2Cl)c1 [II-131, 5-Chloro-N4-[(3-(ethylamino)sulfonylamino)methylphenyl]-N2-[4-(4-methyl-1-piperazinyl)phenyl]-2,4-pyrimidinediamine] |
| 1630 | CCNS(=O)(=O)NCc1cccc(Nc2nc(Nc3ccc(N4CCN(C)CC4)c(C)c3)ncc2Cl)c1 [II-132, 5-Chloro-N4-[(3-(ethylamino)sulfonylamino)methylphenyl]-N2-[3-methyl-4-(4-methyl-1-piperazinyl)phenyl]-2,4-pyrimidinediamine] |
| 209 | CCNS(=O)(=O)NCc1cccc(Nc2nc(Nc3cc(C)c(OC)c(C)c3)ncc2C)c1 [II-133, N2-(3,5-Dimethyl-4-methoxyphenyl)-N4-[(3-(ethylamino)sulfonylamino)methylphenyl]-5-methyl-2,4-pyrimidinediamine] |
| 231 | CCNS(=O)(=O)NCc1cccc(Nc2nc(Nc3cc(C)c(OCC)c(C)c3)ncc2C)c1 [II-134, N2-(3,5-Dimethyl-4-ethoxyphenyl)-N4-[(3-(ethylamino)sulfonylamino)methylphenyl]-5-methyl-2,4-pyrimidinediamine] |
| 267 | CCNS(=O)(=O)NCc1cccc(Nc2nc(Nc3ccc(N4CCN(C)CC4)cc3)ncc2C)c1 [II-135, N4-[(3-(Ethylamino)sulfonylamino)methylphenyl]-5-methyl-N2-[4-(4-methyl-1-piperazinyl)phenyl]-2,4-pyrimidinediamine] |
| 2140 | CCNS(=O)(=O)NCc1cccc(Nc2nc(Nc3ccc(N4CCN(C)CC4)c(C)c3)ncc2C)c1 [II-136, N4-[3-((Ethylamino)sulfonylamino)methylphenyl]-5-methyl-N2-[3-methyl-4-(4-methyl-1-piperazinyl)phenyl]-2,4-pyrimidinediamine] |
| 541 | CCNS(=O)(=O)NCc1cccc(Nc2nc(Nc3cc(C)c(OC)c(C)c3)ncc2F)c1 [II-137, N2-(3,5-Dimethyl-4-methoxyphenyl)-N4-[(3-(ethylamino)sulfonylamino)methylphenyl]-5-fluoro-2,4-pyrimidinediamine] |
| 726 | CCNS(=O)(=O)NCc1cccc(Nc2nc(Nc3ccc(N4CCN(C)CC4)cc3)ncc2F)c1 [II-138, N4-[3-((Ethylamino)sulfonylamino)methylphenyl]-5-fluoro-N2-[4-(4-methyl-1-piperazinyl)phenyl]-2,4-pyrimidinediamine] |
| 4330 | CCNS(=O)(=O)NCc1cccc(Nc2nc(Nc3ccc(N4CCN(C)CC4)c(C)c3)ncc2F)c1 [II-139, N4-[3-((Ethylamino)sulfonylamino)methylphenyl]-5-fluoro-N2-[3-methyl-4-(4-methyl-1-piperazinyl)phenyl]-2,4-pyrimidinediamine] |
| 485 | CCNS(=O)(=O)NCc1ccc(Nc2nc(Nc3cc(C)c(OC)c(C)c3)ncc2Cl)c(C)c1 [II-142, 5-Chloro-N2-(3,5-dimethyl-4-methoxyphenyl)-N4-[2-methyl-4-(ethylaminosulfonylamino)methylphenyl]-2,4-pyrimidinediamine] |
| 252 | CCNS(=O)(=O)NCc1ccc(Nc2nc(Nc3cc(C)c(OCC)c(C)c3)ncc2Cl)c(C)c1 [II-143, 5-Chloro-N2-(3,5-dimethyl-4-ethoxyphenyl)-N4-[2-methyl-4-(ethylaminosulfonylamino)methylphenyl]-2,4-pyrimidinediamine] |
| 549 | CCNS(=O)(=O)NCc1ccc(Nc2nc(Nc3ccc(N4CCN(C)CC4)cc3)ncc2Cl)c(C)c1 [II-144, 5-Chloro-N4-[2-methyl-4-(ethylaminosulfonylamino)methylphenyl]-N2-[4-(4-methyl-1-piperazinyl)phenyl]-2,4-pyrimidinediamine] |
| 3980 | CCNS(=O)(=O)NCc1ccc(Nc2nc(Nc3ccc(N4CCN(C)CC4)c(C)c3)ncc2Cl)c(C)c1 [II-145, 5-Chloro-N4-[2-methyl-4-(ethylaminosulfonylamino)methylphenyl]-N2-[3-methyl-4-(4-methyl-1-piperazinyl)phenyl]-2,4-pyrimidinediamine] |
| 225 | COc1c(C)cc(Nc2ncc(Cl)c(Nc3ccc(CNS(N)(=O)=O)cc3)n2)cc1C [II-146, N4-[4-(Aminosulfonylamino)methylphenyl]-5-chloro-N2-(3,5-dimethyl-4-methoxyphenyl)-2,4-pyrimidinediamine] |

— patent US8304422B2, “Compositions and methods for inhibition of the JAK pathway” (Rigel Pharmaceuticals, Inc., priority 2007, dated 2012)
